Results on two molecules are retold here after patent US12390421B2, “Zwitterionic dendritic amphiphiles, zwitterionic dendrimers, zwitterionic telodendrimers, nanocarriers comprising same, and methods of making and using same” (The Research Foundation for the State University of New York, priority 2017, dated 2025).

The test system of this experiment is SKOV-3 cancer cell. Kind of experiment: Cellular uptake of protein/drug loaded nanocarriers. Type of experiment: cell-based. An excerpt: Cellular uptake of protein/drug delivered by zwitterionic nanocarriers. The internalization of protein/drug loaded zwitterionic nanocarrier was studied against SKOV-3 cancer cell. […] Folate targeting group modification facilitates FITC-BSA-loaded NP_CB internalization into cells compared to non-targeted NP_CB. […] The ability of NPs to deliver drug into cells was studied using DOX as model drug by taking advantage of its intricate fluorescence.

“free FITC-BSA: FITC-labeled BSA, model protein”: the “cellular uptake of FITC-BSA” value (SKOV-3, FITC-BSA free or loaded, 1 h) is on record as “no fluorescence signal”.
For the molecule `COc1cccc2c1C(=O)c1c(O)c3c(c(O)c1C2=O)C[C@@](O)(C(=O)CO)C[C@@H]3O[C@H]1C[C@H](N)[C@H](O)[C@H](C)O1.Cl` [free DOX, Doxorubicin hydrochloride], the “cellular uptake of DOX” value (SKOV-3, DOX free or loaded, 2 h) is “Strong fluorescence and absolute presence of DOX in nucleus”.
